Test results reported in patent publication US20160325911A1, “ANTIMICROBIAL COMPOSITIONS FOR FOOD PACKAGING CONSISTING OF SALICYLALDEHYDE AND CARVACROL, THYMOL OR THEIR MIXTURE” (INSTITUTO TECNOLÓGICO DEL EMBALAJE, TRANSPORTE Y LOGÍSTICA, priority 2014, published 2016).

Tests used:
Assay type in all cases: cell-based
Conditions in all cases: alone or as component of the blend, 20 h at 36° C. in TSB
[1] = test system: Staphylococcus aureus (strain ATCC6538); assay: Broth dilution MIC and synergy index against Staphylococcus aureus
Protocol: (§1) Solutions containing carvacrol, thymol and salicylaldehyde were assessed for antimicrobial activity against three different reference microorganisms: • Gram negative bacteria—Escherichia coli (strain ATCC 8739) • Gram negative bacteria—Pseudomonas aeruginosa (strain ATCC 27853) • Gram positive bacteria—Staphylococcus aureus (strain ATCC6538)
(§2) The microorganisms were collected from the “Colección Española de Cultivos Tipo” (CECT), University of Valencia. They were collected in the form of a lyophilized inoculum and were refreshed by regular seeding in solid culture media. After the grown, the stock culture was kept under refrigeration. Prior to the analysis, the microorganisms were recultured 3-4 times by diluting colonies in tryptic soy broth (TSB) and incubating overnight at 36° C.
(§3) The day prior to the assay, the colonies are touched with a loop and transferred to tryptic soy broth (TBS) (100 mL). The broth is incubated at 36° C. overnight until the growth reaches a turbidity equal or similar to 10^9 colony-forming units per millilitre (CFU/mL). The culture is adjusted to give a turbidity equivalent to 0.18 absorbance units in order to confirm the inoculum is in the exponential growth phase (around 10^5-10^6 CFU/mL). The measurement is carried out by using a UV-VIS spectrometer, operating at 550 nm and a 1-cm path cell. […]
(§4) The antimicrobial efficacy of Carvacrol, Thymol and Salycylaldehyde and their blends, was determined as Minimum Inhibitory Concentration (MIC). MIC is recorded as the lowest product concentration that inhibits growth. […]
(§5) Where: • CM is the MIC of the substance n when used in a blend, that is, in combination with the rest of antimicrobial compounds analysed. • CS is the MIC of the substance when used alone.
(§6) SI below 1 indicates synergy effect and p-value has been calculated as the probability of obtaining the observed sample results (or a more extreme result) when the null hypothesis is actually true. […]

[2] = test system: Escherichia coli (strain ATCC 8739); assay: Broth dilution MIC and synergy index against Escherichia coli
Protocol: as §1, §2, §3, §4, §5, §6

[3] = test system: Pseudomonas aeruginosa (strain ATCC 27853); assay: Broth dilution MIC and synergy index against Pseudomonas aeruginosa
Protocol: as §1, §2, §3, §4, §5, §6

[4] = amount of salicylaldehyde at the MIC

In the case of `Cc1ccc(C(C)C)cc1O` [Carvacrol, carvacrol], the “MIC Staphylococcus aureus, Carvacrol” value ([1]; amount of carvacrol at the MIC) is reported as 2.1 mg, the “MIC Escherichia coli, Carvacrol” value ([2]; amount of carvacrol at the MIC) is reported as 3 mg and the “MIC Pseudomonas aeruginosa, Carvacrol” value ([3]; amount of carvacrol at the MIC) is reported as 7.5 mg.
In the case of `O=Cc1ccccc1O` [Salicylaldehyde, salicylaldehyde], the “MIC Staphylococcus aureus, Salicylaldehyde” value [1, 4] is reported as 4.75 mg, the “MIC Escherichia coli, Salicylaldehyde” value [2, 4] is reported as 4.75 mg and the “MIC Pseudomonas aeruginosa, Salicylaldehyde” value [3, 4] is reported as 2.25 mg.
With `Cc1ccc(C(C)C)c(O)c1` [Thymol, thymol] the “MIC Staphylococcus aureus, Thymol” value ([1]; amount of thymol at the MIC) was 1.1 mg, the “MIC Escherichia coli, Thymol” value ([2]; amount of thymol at the MIC) was 2 mg and the “MIC Pseudomonas aeruginosa, Thymol” value ([3]; amount of thymol at the MIC) was 4.5 mg.
